Reference: US7183317B2, “Compounds and methods to increase plasma HDL cholesterol levels and improve HDL functionality” (Atherogenics, Inc., priority 2004, dated 2007)
Values joined by “and” are separate entries in the source; they are usually repeats but may differ in a detail not shown here. Identical values can stand only once.

What was measured:
[1] = tested on: HepG2 cells; assay: apoAI-HDL elevation cell-based screen (apoAI accumulation by ELISA); set-up: species or system human; details: for increase of apoAI accumulation / circulating apoAI-HDL: 1 mM
Method: HepG2 cells were obtained from the American Type Culture Collection (Rockville, Md.). Fetal bovine serum (FBS) was purchased from Gibco Laboratories. Cells were cultured in minimum essential medium (MEM) containing 10% FBS, and 100 μg/mL of streptomycin, 100 unit/mL of penicillin, and 4 mM of glutamine (Gibco/BRL). Cells were grown for 2 days till they are 80% confluent in 6-well, or 12-well plates before studies. In all cases medium was changed every other day.
To measure apoAI, 96-well microtiter plates were coated with a 1:1000 diluted mixture of three monoclonal antibodies against human apoAI (A05, A17, and A44) for 2 h and incubated in succession with HDL3 (0 to 15 ng/well), sheep polyclonal anti-apoAI serum (Boehringer Mannheim), alkaline phosphatase-labeled rabbit anti-sheep (Cappel), and p-nitrophenyl phosphate (1 mg/mL in 10 mmol/L ethanolamine, 0.5 mmol/L MgCl2, pH 9.5), for 2, 1 and 1 h respectively at 37° C. The plates were washed three times between different incubations. The absorbance at 405 nm was determined by using a Bio-Rad model 550 microplate reader (Bio-Rad).
The effect of Compound A on apoAI-HDL elevation was measured using a cell-based screen assay. The hepatic model, HepG2 cells, was used to observe the accumulation of apoAI as a result of secretion and/or uptake of apoAI; both processes taking place in the liver. HepG2 cells were treated with compounds for 24 hours or 48 hours in DMEM containing 1% RSA. apoAI accumulation was measured by ELISA as described in Materials and Methods.

[2] = tested on: SR-BI/II receptors; assay: 3[H] CE delivery to HepG2 cells with anti SR-BI/II antibody blocking; format: cell-based
Method: It was important to discern whether or not Compound A was acting through the SR-BI/II receptors to increase the delivery of cholesterol. HepG2 cells were incubated with anti-mouse SR-BI/II antibodies for 45 min. Compound A was then added, and the cells were incubated with 30 μg/ml of ^3[H] CE-HDL for 3.5 h at 37° C. Anti-mouse SR-BI/II antibodies (1.0 mg/mL) reduced delivery of ^3[H] CE by 76%, while Compound A increase the delivery of ^3[H] CE to HepG2 cells by 56%. […] CE to cells provoked by Compound A. Further the anti SR-BI/II antibodies decreased the delivery of ^3[H] CE from 156% to 28% (FIG. 4).

[3] = tested on: HepG2 cells; assay: Uptake/delivery of 3[H] cholesteryl ester-HDL to HepG2 cells; format: cell-based, human; details: 12.5 μM, 50 μg/ml 3[H] CE-HDL, 3.5 h, 37° C., vs 100% delivery without compound
Method: ^3[H]cholesteryl Hexadecyl Ether-labeled HDL was prepared as described by Rodrigueza et al. (Rodrigueza W. V. et al. (1999) J. Biol. Chem. 274:20344–20350). 40 μCi of ^3[H]hexadecyl ether (40–60 Ci/mmol, NEN life Sciences Products) were incubated with 5 mg of HDL3 and 240 mg of heat-inactivated lipoprotein-deficient plasma, 0.01% aprotinin in a polypropylene tube sealed with nitrogen gas for 40 h at 37° C. according to the method of Terpstra et al. ^3[H]-CE enriched HDL was re-isolated by flotation ultracentrifugation and dialyzed against phosphate-buffered saline (PBS). To perform CE uptake studies, HepG2 cells, seeded in 6 or 12 well plates were grown for 2 days till 80% confluent and, then treated with compounds in 1% RSA-DMEM medium for 24 h. The next day, cells were treated with 12.5 μM compounds and 50 μg/mL of ^3[H]-CE HDL for 3.5 h at 37° C. After incubation, cells were washed 4 times with PBS/BSA and 2 times with PBS, followed by addition of 0.1 N NAOH. Cells were collected, and radioactivity was measured in counts per minute and expressed as percent of ^3[H]-CE delivered to cells.
HepG2 cells were cultured as described above and incubated with 50 μg/ml of ^3[H] CE-HDL particles and compounds for 3.5 h at 37° C. […] CE delivery to HepG2 cells resulting from treatment with indicated compounds compared to a 100% delivery in the absence of any compound. […] CE, as also described by Jin et al. (Jin, F. et al. (1997) Atheroscler. Thromb Vasc Biol. 17: 2020–2028).

[4] = tested on: hypercholesterolemic hamsters; format: in vivo; details: two weeks; for percent increase of HDL cholesterol: 150 mg/kg/d in chow; for percent increase of HDL cholesterol / percent lowering of HDLc: compared to untreated controls
Description: Male Golden Syrian hamsters weighing 110–120 g were obtained from Charles River Laboratories (Wilmington, Mass.). Hamsters were housed individually with wood chip bedding and soft nesting material with lights on a 6 A.M. and off at 6 p.m. Upon arrival the hamsters were acclimated for three days on standard rodent chow and water (Purina rodent chow 5001) ad libitum. Prior to dosing, the hamsters were made hypercholesterolemic by feeding them a powdered diet supplemented with 0.5% cholesterol and 10% coconut oil (Harlan Teklad diet #97235) for one week. Water was added to the powdered chow to form a paste and the chow paste rolled into balls with each animal receiving 20 g of chow paste per day in stainless steel bowls. Chow intake was recorded daily. Body weights were recorded after one week and at the end of the end of the study. Hamsters were distributed into treatment groups after the one-week pretreatment period such that each group had similar average body weights.
Compound A homogenized in methylcellulose/Tween-20 using a polytron PT2100 homogenizer (Brinkman) before adding it to the high cholesterol chow paste and administered as an admixture at the same time each morning for two weeks. At the end of the treatment period the hamsters were fasted in the late afternoon on the day prior to blood collection. Fasting was achieved by transferring the hamsters to clean cages and removing chow stored in cheek pouches. Hamsters were anesthetized with ketamine/rompun solution. When unresponsive to toe pinch and still respiring, blood was collected via cardiac puncture from which plasma was separated and frozen at −80° C.
Lipoproteins were isolated from whole plasma by Fast Phase Liquid Chromatography (FPLC). Cholesterol and triglyceride concentrations in the different lipoprotein fractions were determined by enzymatic methods using a CX-5 chemical analyzer and standard Beckman reagents.
A Dunnetts test was used to compare the experimental and control groups. P<0.05 was considered significant.
The effect of Compound A on HDLc levels was assessed using hypercholesterolemic hamsters. Male Golden Syrian hamsters were fed as described in Materials and Methods. Compound A homogenized as described above before adding it to the high cholesterol chow paste and administered as an admixture at the same time each morning for two weeks. At the end of the treatment period the hamsters were fasted in the late afternoon on the day prior to blood collection. Hamsters were anesthetized with ketamine/rompun solution. When unresponsive to toe pinch and still respiring, blood was collected via cardiac puncture from which plasma was separated and frozen at −80° C.
LDL cholesterol was not affected. Lipid profiles were obtained according to the method published by Lee, A. and coworkers (W. Innis-Whitehouse, X. Li, V. Brown and N. Lee., J. Lipid Res. 39, 679 (1998)).

[5] = tested on: HDL holoprotein; assay: Hepatic clearance/uptake of HDL holoprotein; format: cell-based
Description: The trichloroacetic-precipitable labeled apoAI-HDL in the conditioned medium represents degraded labeled apoAI-HDL. After washing and detaching, cells are centrifuged. Labeled apoAI-HDL in the cellular fraction represents internalized HDL holoprotein; whereas, label in the supernatant represents cell surface bound apoAI-HDL that has been dissociated. Increased amounts of labeled HDL in cells treated with compounds versus cells not treated with compounds indicates increased degradation, internalization, or binding to the cell surface. Compounds are selected which decrease the amount of apoAI-HDL label in the cellular fraction of the cells contacted with a test compound compared to the amount of label in the cellular fraction of the cells not contacted with the test compound. […] Label in the conditioned medium represents degraded labeled-HDL. After washing and detaching, cells are centrifuged. Label in the cellular fraction represents internalized HDL holoprotein; whereas, label in the supernatant represents cell surface bound apoAI-HDL that has been dissociated. Increased amounts of label in cells treated with compounds versus cells not treated with compounds indicates increased degradation, internalization, or binding of apoAI-HDL to the cell surface. […]

[6] = tested on: apoAI; assay: apoAI synthesis; format: cell-based
[7] = 12.5 μM, compared to control (absence of compounds)

CC(C)(Sc1cc(C(C)(C)C)c(O)c(C(C)(C)C)c1)Sc1cc(C(C)(C)C)c(OCCCCOS(=O)(=O)O)c(C(C)(C)C)c1 [B, Sulfuric acid, mono-(4-{2,6-di-tert-butyl-4-[1-(3,5-di-tert-butyl-4-hydroxy-phenyl-sulfanyl)-1-methylethylsulfanyl]-phenoxy}-butyl)ester]
percent increase of apoAI (apoAI-HDL) accumulation [1, 7]: ~30%

CC(C)(Sc1cc(C(C)(C)C)c(O)c(C(C)(C)C)c1)Sc1cc(C(C)(C)C)c(OC[C@@H](O)[C@@H](O)[C@@H](O)C(=O)O)c(C(C)(C)C)c1 [Compound A, 5-[4-[1-[(3,5-bis(1,1-dimethylethyl)-4-hydroxyphenyl)thio]-1-methylethyl]thio-2,6-bis(1,1-dimethylethyl)phenoxy]-2(R),3(R),4(R)-trihydroxypentanoic acid]
percent increase of 3[H]CE delivery to HepG2 cells ([2]; 30 μg/ml 3[H] CE-HDL, 3.5 h, 37° C., no antibody): 56% | delivery of 3[H] CE, percent of control ([2]; Compound A in presence of anti SR-BI/II antibodies): 28% | delivery of 3[H] CE, percent of control ([2]; Compound A without antibodies): 156% | percent increase of 3[H]CE delivery to HepG2 cells [3]: 109% and 108% | percent increase of apoAI (apoAI-HDL) accumulation [1, 7]: 122.5% and 122% | percent increase of apoAI (apoAI-HDL) accumulation ([1]; 25 μM, compared to control): 132.5% and 132% | percent increase of HDL cholesterol [4]: 30% | effect on LDL cholesterol ([4]; 150 mg/kg/d): not affected

CC(C)(Sc1cc(C(C)(C)C)c(O)c(C(C)(C)C)c1)Sc1cc(C(C)(C)C)c(OCC(O)CNCC(=O)O)c(C(C)(C)C)c1 (centres unmarked) [Compound C, Glycine, N-[3-[4-[1-[[3,5-bis(1,1-dimethylethyl)-4-hydroxyphenyl]thio]-methylethyl]thio-2,6-bis(1,1-dimethylethyl)phenoxy]-2-hydroxypropyl]]
percent increase of apoAI (apoAI-HDL) accumulation [1, 7]: ~15% | percent increase of HDL cholesterol [4]: 40%

CC(C)(Sc1cc(C(C)(C)C)c(O)c(C(C)(C)C)c1)Sc1cc(C(C)(C)C)c(OC[C@H]2OC(O)[C@H](O)[C@@H](O)[C@@H]2O)c(C(C)(C)C)c1 (some centres unmarked) [Compound D]
percent decrease of apoAI (apoAI-HDL) accumulation ([1]; 12.5 μM, compared to control): about 10% | percent lowering of HDLc ([4]; 150 mg/kg/d): ~80%

CC(C)(Sc1cc(C(C)(C)C)c(O)c(C(C)(C)C)c1)Sc1cc(C(C)(C)C)c(OC[C@@H](O)[C@H](O)[C@H](O)[C@H](O)CO)c(C(C)(C)C)c1 [Compound E]
percent decrease of apoAI (apoAI-HDL) accumulation ([1]; 12.5 μM, compared to control): about 10% | percent lowering of HDLc ([4]; 150 mg/kg/d): ~40%

O=C(O)c1cccnc1 [Niacin, Nicotinic acid, reference compound]
increase of apoAI accumulation / circulating apoAI-HDL [1]: increased | increase of apoAI accumulation / circulating apoAI-HDL ([1]; listed as niacin): 10%

CC(C)(Sc1cc(C(C)(C)C)c(O)c(C(C)(C)C)c1)Sc1cc(C(C)(C)C)c(O)c(C(C)(C)C)c1 [Probucol, 4,4′-(isopropylidenedithio)bis(2,6-di-tert-butylphenol), reference compound]
percent increase of 3[H]CE delivery to HepG2 cells [3]: 29% | percent increase of 3[H]CE delivery to HepG2 cells ([3]; listed as probucol): increased | percent decrease of apoAI (apoAI-HDL) accumulation ([1]; 12.5 μM, compared to control): 23% | HDL holoprotein uptake [5]: reduced | effect on synthesis of apoAI (newly synthesized apoAI) [6]: reduced

CC1=C(/C=C/C(C)=C/C=C/C(C)=C/C(=O)O)C(C)(C)CCC1 [Retinoic acid, reference compound]
percent increase of apoAI accumulation ([1]; 10 μM, positive control): 53.6%
